PMC6513986, “Molecular basis for heat desensitization of TRPV1 ion channels” (Nature Communications, 2019)
Read-outs that look alike come from different tables or passages of the source.

Columns and labels:
mV1 CΔ30 (Glu747-Phe776) = mV1 CΔ30 (Glu747-Phe776) (Mus musculus, UniProt Q704Y3, DEL747-776); assay: Agonist activation, patch clamp, HEK293T; assay type: cell-based; conditions: read-out: EC50_Capsaicin
pV1_mC chimera = pV1_mC chimera (Ornithorhynchus anatinus, UniProt F7A7B4); assay: Agonist activation, patch clamp, HEK293T; assay type: cell-based, platypus / mouse; conditions: read-out: EC50_Capsaicin
Sequence of pV1_mC chimera (F7A7B4 1-691, stated change not applied): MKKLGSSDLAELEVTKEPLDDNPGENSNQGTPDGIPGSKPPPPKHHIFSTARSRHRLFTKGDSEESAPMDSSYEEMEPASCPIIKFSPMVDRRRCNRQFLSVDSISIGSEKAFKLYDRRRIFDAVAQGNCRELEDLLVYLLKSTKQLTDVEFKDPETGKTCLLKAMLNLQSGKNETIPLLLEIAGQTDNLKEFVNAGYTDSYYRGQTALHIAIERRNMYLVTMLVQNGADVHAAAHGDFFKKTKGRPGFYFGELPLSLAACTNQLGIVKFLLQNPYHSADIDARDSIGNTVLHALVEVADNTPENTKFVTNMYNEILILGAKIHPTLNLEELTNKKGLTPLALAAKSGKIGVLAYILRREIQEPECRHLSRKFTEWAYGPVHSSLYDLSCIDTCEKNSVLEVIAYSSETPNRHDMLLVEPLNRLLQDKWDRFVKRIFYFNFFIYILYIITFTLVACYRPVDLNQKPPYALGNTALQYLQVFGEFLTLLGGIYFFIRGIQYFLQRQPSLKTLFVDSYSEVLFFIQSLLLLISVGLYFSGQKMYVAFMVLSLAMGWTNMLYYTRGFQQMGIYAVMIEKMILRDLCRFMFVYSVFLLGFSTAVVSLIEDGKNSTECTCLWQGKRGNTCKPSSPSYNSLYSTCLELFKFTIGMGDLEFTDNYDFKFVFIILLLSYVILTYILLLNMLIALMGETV
Sequence of pV1_mC chimera (Q704Y3 688-839 partner): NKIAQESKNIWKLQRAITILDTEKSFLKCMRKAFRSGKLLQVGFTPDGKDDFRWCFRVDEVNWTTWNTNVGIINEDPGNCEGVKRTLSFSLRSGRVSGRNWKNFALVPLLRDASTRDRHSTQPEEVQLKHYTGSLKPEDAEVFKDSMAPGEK

mV1 CΔ23 (Ser777-Asp799) = mV1 CΔ23 (Ser777-Asp799) (Mus musculus, UniProt Q704Y3, DEL777-799); assay: Agonist activation, patch clamp, HEK293T; assay type: cell-based; conditions: read-out: EC50_Capsaicin
Sequence of mV1 CΔ23 (Ser777-Asp799) (Q704Y3 with tags, fused parts or gaps DEL777-799): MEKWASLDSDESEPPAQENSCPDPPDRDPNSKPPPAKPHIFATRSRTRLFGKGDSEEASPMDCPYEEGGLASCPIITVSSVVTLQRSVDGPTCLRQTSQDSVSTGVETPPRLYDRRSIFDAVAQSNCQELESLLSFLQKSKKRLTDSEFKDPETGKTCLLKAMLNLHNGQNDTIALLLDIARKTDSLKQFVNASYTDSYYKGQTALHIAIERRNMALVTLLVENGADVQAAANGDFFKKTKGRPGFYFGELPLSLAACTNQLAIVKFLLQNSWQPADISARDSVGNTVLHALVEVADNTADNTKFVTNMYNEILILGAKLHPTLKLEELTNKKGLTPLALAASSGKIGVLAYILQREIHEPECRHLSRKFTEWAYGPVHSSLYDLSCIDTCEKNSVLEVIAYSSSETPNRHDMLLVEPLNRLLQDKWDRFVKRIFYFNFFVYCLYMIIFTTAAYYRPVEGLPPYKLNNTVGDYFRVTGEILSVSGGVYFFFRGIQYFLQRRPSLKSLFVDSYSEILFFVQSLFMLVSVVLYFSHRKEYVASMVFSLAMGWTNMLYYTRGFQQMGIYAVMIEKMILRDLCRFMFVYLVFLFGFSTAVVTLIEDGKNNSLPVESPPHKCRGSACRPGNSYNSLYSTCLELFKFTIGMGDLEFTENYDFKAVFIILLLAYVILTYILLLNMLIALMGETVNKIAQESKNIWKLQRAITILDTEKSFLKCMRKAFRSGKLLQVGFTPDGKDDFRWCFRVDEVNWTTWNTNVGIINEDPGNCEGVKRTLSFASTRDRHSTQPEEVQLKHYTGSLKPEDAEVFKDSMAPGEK

pV1_643 (ANAP) = pV1_643 (ANAP) (Ornithorhynchus anatinus, UniProt F7A7B4, S634X)
Tree shrew TRPV1 = Tree shrew TRPV1 (Tupaia chinensis, UniProt L8Y7X1); assay: Agonist activation, patch clamp, HEK293T; assay type: cell-based, Tupaia belangeri chinensis; conditions: read-out: EC50_Capsaicin
Sequence of Tree shrew TRPV1 (L8Y7X1 1-828): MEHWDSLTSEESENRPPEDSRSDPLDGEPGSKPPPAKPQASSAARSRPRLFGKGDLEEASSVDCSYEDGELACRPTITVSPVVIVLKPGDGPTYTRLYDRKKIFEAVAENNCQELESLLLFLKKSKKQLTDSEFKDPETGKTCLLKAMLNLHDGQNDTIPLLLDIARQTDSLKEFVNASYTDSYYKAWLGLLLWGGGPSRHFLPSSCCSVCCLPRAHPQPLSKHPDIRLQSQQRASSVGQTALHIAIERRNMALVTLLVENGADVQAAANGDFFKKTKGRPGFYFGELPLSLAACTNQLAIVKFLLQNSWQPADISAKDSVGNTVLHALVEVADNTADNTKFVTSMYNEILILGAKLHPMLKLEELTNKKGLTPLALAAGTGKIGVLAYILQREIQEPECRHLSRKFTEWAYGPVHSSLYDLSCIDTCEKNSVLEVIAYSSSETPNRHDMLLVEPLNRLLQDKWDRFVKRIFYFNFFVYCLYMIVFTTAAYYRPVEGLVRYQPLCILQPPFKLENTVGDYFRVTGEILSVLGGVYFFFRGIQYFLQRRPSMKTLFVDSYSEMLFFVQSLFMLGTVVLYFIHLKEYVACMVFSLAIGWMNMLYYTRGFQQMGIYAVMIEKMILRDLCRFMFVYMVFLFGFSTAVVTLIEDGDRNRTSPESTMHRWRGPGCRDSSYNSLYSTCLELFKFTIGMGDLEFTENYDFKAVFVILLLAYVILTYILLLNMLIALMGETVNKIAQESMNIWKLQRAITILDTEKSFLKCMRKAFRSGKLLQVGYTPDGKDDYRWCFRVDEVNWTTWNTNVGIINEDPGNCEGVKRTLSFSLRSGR

mV1 P836A = mV1 P836A (Mus musculus, UniProt Q704Y3, P836A); assay: Agonist activation, patch clamp, HEK293T; assay type: cell-based; conditions: read-out: EC50_Capsaicin
Sequence of mV1 P836A (Q704Y3 whole entry P836A): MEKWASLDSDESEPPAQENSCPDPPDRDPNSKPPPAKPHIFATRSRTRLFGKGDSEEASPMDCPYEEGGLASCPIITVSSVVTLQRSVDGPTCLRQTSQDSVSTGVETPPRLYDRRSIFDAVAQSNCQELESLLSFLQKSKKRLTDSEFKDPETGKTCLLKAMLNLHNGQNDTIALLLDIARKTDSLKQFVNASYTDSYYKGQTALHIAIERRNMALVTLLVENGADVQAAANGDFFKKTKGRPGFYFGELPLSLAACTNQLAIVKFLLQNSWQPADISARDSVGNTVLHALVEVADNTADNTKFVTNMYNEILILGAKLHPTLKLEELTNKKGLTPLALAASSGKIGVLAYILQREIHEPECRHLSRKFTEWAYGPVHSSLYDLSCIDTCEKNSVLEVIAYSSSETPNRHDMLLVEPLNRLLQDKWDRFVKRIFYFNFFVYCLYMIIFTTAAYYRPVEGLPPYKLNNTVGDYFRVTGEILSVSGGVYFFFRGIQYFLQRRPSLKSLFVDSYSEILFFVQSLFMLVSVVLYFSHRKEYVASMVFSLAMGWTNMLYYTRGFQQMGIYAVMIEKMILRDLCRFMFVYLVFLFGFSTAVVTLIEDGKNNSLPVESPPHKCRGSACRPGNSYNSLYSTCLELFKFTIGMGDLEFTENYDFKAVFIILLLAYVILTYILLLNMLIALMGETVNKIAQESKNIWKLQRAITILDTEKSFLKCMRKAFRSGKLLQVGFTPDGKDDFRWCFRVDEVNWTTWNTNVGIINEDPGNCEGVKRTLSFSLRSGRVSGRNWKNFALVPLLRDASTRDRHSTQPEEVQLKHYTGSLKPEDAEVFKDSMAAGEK

Fruit bat TRPV1 = Fruit bat TRPV1 (Carollia brevicauda, UniProt G1DJ79); assay: Agonist activation, patch clamp, HEK293T; assay type: cell-based; conditions: read-out: EC50_Capsaicin
Sequence of Fruit bat TRPV1 (G1DJ79 1-838): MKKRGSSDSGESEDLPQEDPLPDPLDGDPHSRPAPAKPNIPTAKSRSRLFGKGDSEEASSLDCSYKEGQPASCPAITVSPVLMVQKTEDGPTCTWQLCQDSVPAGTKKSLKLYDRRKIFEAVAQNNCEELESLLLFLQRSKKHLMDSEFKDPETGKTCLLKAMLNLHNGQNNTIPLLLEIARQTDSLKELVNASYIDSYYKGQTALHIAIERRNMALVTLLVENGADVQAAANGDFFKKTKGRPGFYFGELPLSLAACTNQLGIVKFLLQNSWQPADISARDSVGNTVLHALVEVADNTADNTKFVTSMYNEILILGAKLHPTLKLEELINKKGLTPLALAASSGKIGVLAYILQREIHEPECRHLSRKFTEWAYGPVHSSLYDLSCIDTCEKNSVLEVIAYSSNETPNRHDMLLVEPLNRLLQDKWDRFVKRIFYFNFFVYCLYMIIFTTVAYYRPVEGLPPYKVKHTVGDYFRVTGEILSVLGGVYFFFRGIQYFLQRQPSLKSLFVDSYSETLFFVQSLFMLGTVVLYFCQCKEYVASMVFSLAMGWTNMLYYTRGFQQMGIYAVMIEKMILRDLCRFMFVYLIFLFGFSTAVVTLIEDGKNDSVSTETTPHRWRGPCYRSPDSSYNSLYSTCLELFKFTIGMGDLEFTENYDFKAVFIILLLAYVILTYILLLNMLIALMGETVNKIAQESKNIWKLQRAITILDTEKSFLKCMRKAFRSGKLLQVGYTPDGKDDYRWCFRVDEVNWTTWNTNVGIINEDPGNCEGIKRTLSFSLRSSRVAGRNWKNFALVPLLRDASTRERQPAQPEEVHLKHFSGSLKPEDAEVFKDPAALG

mV1 M834A = mV1 M834A (Mus musculus, UniProt Q704Y3, M834A); assay: Agonist activation, patch clamp, HEK293T; assay type: cell-based; conditions: read-out: EC50_Capsaicin
Sequence of mV1 M834A (Q704Y3 whole entry M834A): as the sequence (Q704Y3 whole entry P836A) above, with M834A, A836P counted along it

mV1 T371G = mV1 T371G (Mus musculus, UniProt Q704Y3, T371G); assay: Agonist activation, patch clamp, HEK293T; assay type: cell-based; conditions: read-out: EC50_Capsaicin
Sequence of mV1 T371G (Q704Y3 whole entry T371G): as the sequence (Q704Y3 whole entry P836A) above, with T371G, A836P counted along it

Polar bear TRPV1 = Polar bear TRPV1 (Ursus maritimus, UniProt A0A384CG69); assay: Agonist activation, patch clamp, HEK293T; assay type: cell-based; conditions: read-out: EC50_Capsaicin
mV1_685 (ANAP) = mV1_685 (ANAP) (Mus musculus, UniProt Q704Y3, E685X); assay: Agonist activation of ANAP-incorporated channel, patch clamp; assay type: cell-based
TRPV1 = conditions: cited from earlier work
mouse TRPV1 (mV1) = mouse TRPV1 (mV1) (Mus musculus, UniProt Q704Y3); assay: Agonist activation, patch clamp, HEK293T; assay type: cell-based; conditions: read-out: EC50_Capsaicin
mV1 F830A = mV1 F830A (Mus musculus, UniProt Q704Y3, F830A); assay: Agonist activation, patch clamp, HEK293T; assay type: cell-based; conditions: read-out: EC50_Capsaicin
Camel TRPV1 = Camel TRPV1 (Camelus ferus, UniProt A0A8B8UHM1); assay: Agonist activation, patch clamp, HEK293T; assay type: cell-based; conditions: read-out: EC50_Capsaicin
mV1 CΔ28 (Ala800-Ala827) = mV1 CΔ28 (Ala800-Ala827) (Mus musculus, UniProt Q704Y3, DEL800-827); assay: Agonist activation, patch clamp, HEK293T; assay type: cell-based; conditions: read-out: EC50_Capsaicin
Sequence of mV1 CΔ28 (Ala800-Ala827) (Q704Y3 with tags, fused parts or gaps DEL800-827): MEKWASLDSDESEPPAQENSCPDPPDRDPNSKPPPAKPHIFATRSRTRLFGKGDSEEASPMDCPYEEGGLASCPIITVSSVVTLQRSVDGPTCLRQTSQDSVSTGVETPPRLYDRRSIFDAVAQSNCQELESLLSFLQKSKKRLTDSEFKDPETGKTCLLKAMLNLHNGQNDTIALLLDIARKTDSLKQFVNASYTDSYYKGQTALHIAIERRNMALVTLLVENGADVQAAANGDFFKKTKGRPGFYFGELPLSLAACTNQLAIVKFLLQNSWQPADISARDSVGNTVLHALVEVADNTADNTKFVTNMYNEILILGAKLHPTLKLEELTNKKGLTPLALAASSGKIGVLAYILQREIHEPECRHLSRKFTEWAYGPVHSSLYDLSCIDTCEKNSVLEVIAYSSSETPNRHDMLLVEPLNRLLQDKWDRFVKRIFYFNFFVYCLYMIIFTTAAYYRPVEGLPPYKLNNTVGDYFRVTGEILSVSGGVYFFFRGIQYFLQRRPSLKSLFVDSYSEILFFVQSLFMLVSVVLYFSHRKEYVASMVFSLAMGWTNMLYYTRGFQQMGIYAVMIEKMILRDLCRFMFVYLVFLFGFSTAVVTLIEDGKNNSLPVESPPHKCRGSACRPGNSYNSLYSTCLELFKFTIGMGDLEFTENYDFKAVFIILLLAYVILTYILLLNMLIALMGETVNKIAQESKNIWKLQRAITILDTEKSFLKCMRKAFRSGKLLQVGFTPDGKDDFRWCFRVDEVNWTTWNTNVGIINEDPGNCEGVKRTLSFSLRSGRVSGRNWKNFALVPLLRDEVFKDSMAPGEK

COc1cc(CNC(=O)CCCC/C=C/C(C)C)ccc1O [Capsaicin, capsaicin]
EC50 (mV1 CΔ30 (Glu747-Phe776); mean ± s.e.m., n = 5): 372 nM
EC50 (mV1 CΔ30 (Glu747-Phe776); replicate 1): 252 nM
EC50 (mV1 CΔ30 (Glu747-Phe776); replicate 2): 260 nM
EC50 (mV1 CΔ30 (Glu747-Phe776); replicate 3): 424 nM
EC50 (mV1 CΔ30 (Glu747-Phe776); replicate 4): 463 nM
EC50 (mV1 CΔ30 (Glu747-Phe776); replicate 5): 461 nM
EC50 (pV1_mC chimera; mean ± s.e.m., n = 6): 310 nM
EC50 (pV1_mC chimera; replicate 3): 388 nM
EC50 (pV1_mC chimera; replicate 4): 257 nM
EC50 (pV1_mC chimera; replicate 5): 354 nM
EC50 (pV1_mC chimera; replicate 6): 300 nM
EC50 (mV1 CΔ23 (Ser777-Asp799); mean ± s.e.m., n = 3): 398 nM
EC50 (mV1 CΔ23 (Ser777-Asp799); replicate 1): 320 nM
EC50 (mV1 CΔ23 (Ser777-Asp799); replicate 2): 353 nM
EC50 (mV1 CΔ23 (Ser777-Asp799); replicate 3): 521 nM
EC50_Capsaicin (pV1_643 (ANAP); replicate 1): 323 nM
EC50_Capsaicin (pV1_643 (ANAP); replicate 2): 276 nM
EC50_Capsaicin (pV1_643 (ANAP); replicate 3): 290 nM
EC50_Capsaicin (pV1_643 (ANAP); replicate 4): 327 nM
EC50_Capsaicin (pV1_643 (ANAP); replicate 6): 351 nM
EC50 (Tree shrew TRPV1; mean ± s.e.m., n = 3): 5260 nM
EC50 (Tree shrew TRPV1; replicate 1): 4932 nM
EC50 (Tree shrew TRPV1; replicate 2): 5507 nM
EC50 (Tree shrew TRPV1; replicate 3): 5341 nM
EC50 (mV1 P836A; mean ± s.e.m., n = 3): 315 nM
EC50 (mV1 P836A; replicate 1): 262 nM
EC50 (mV1 P836A; replicate 2): 364 nM
EC50 (Fruit bat TRPV1; mean ± s.e.m., n = 6): 354 ± 25 nM
EC50 (Fruit bat TRPV1; replicate 1): 273 nM
EC50 (Fruit bat TRPV1; replicate 2): 389 nM
EC50 (Fruit bat TRPV1; replicate 3): 419 nM
EC50 (Fruit bat TRPV1; replicate 4): 415 nM
EC50 (Fruit bat TRPV1; replicate 5): 274 nM
EC50 (Fruit bat TRPV1; replicate 6): 354 nM
EC50 (mV1 M834A; mean ± s.e.m., n = 3): 329 ± 23 nM
EC50 (mV1 M834A; replicate 1): 280 nM
EC50 (mV1 M834A; replicate 2): 378 nM
EC50 (mV1 M834A; replicate 3): 329 nM
EC50 (mV1 T371G; mean ± s.e.m., n = 3): 322 nM
EC50 (mV1 T371G; replicate 1): 349 nM
EC50 (mV1 T371G; replicate 2): 332 nM
EC50 (Polar bear TRPV1; mean ± s.e.m., n = 3): 313 nM
EC50 (Polar bear TRPV1; replicate 1): 262 nM
EC50 (Polar bear TRPV1; replicate 2): 336 nM
EC50 (Polar bear TRPV1; replicate 3): 341 nM
EC50 (mV1_685 (ANAP)): 295 nM
EC50_Capsaicin (mV1_685 (ANAP); replicate 1): 321 nM
EC50_Capsaicin (mV1_685 (ANAP); replicate 3): 335 nM
EC50_Capsaicin (mV1_685 (ANAP); replicate 4): 287 nM
EC50_Capsaicin (mV1_685 (ANAP); replicate 5): 299 nM
EC50_Capsaicin (mV1_685 (ANAP); replicate 6): 268 nM
EC50_Capsaicin (mV1_685 (ANAP); replicate 7): 335 nM
EC50_Capsaicin (mV1_685 (ANAP); replicate 8): 254 nM
effect of capsaicin administration (TRPV1): a burning sensation and acute drop in body core temperature (hypothermia)
EC50 (mouse TRPV1 (mV1); Supp Table 1 data, replicate 1): 249 nM
EC50 (mouse TRPV1 (mV1); Supp Table 1 data, replicate 2): 299 nM
EC50 (mouse TRPV1 (mV1); Supp Table 2 data, replicate 1): 277 nM
EC50 (mouse TRPV1 (mV1); Supp Table 2 data, replicate 2): 302 nM
EC50 (mouse TRPV1 (mV1); Supp Table 3 data, replicate 1): 276 nM
EC50 (mouse TRPV1 (mV1); Supp Table 3 data, replicate 2): 306 nM
EC50 (mouse TRPV1 (mV1); Supp Table 3 data, replicate 3): 315 nM
EC50 (mouse TRPV1 (mV1); Supp Table 4 data, replicate 1): 297 nM
EC50 (mouse TRPV1 (mV1); Supp Table 4 data, replicate 2): 279 nM
EC50 (mouse TRPV1 (mV1); Supp Table 4 data, replicate 3): 321 nM
EC50 (mV1 F830A; mean ± s.e.m., n = 3): 338 nM
EC50 (mV1 F830A; replicate 1): 286 nM
EC50 (mV1 F830A; replicate 2): 398 nM
EC50 (mV1 F830A; replicate 3): 330 nM
EC50 (Camel TRPV1; mean ± s.e.m., n = 5): 540 nM
EC50 (Camel TRPV1; replicate 1): 445 nM
EC50 (Camel TRPV1; replicate 2): 443 nM
EC50 (Camel TRPV1; replicate 3): 562 nM
EC50 (Camel TRPV1; replicate 4): 619 nM
EC50 (Camel TRPV1; replicate 5): 631 nM
EC50 (mV1 CΔ28 (Ala800-Ala827); mean ± s.e.m., n = 3): 343 nM
EC50 (mV1 CΔ28 (Ala800-Ala827); replicate 1): 256 nM
EC50 (mV1 CΔ28 (Ala800-Ala827); replicate 2): 365 nM
EC50 (mV1 CΔ28 (Ala800-Ala827); replicate 3): 408 nM
